{"source": "patent US10561712B2", "about": "“Treatment of cancer and inhibition of metastasis using hemoglobin beta subunit” (UNIVERSITY OF MARYLAND, BALTIMORE, priority 2014, dated 2020)", "key": {"[1]": {"tested_on": "MCF-7 breast carcinoma cells", "test": "Viability of cancerous cell lines, MCF-7", "details": "MTS-based assay; FIG. 3E", "procedure": "(§1) Neuroblastoma cells were seeded (3×10^4 per well) in a 96-well flat-bottomed tissue culture plate. After an incubation of 24 hr, cells were washed and incubated with the relevant factors (detailed in the following sections) diluted in starvation medium (RPMI-1640 containing 5% bovine serum albumin (BSA); Biological Industries, Kibbutz Beit Haemek, Israel; Sigma-Aldrich). Cell viability under normal conditions (starvation medium containing BSA) or after incubation with the relevant factors was monitored after 72 hr using an XTT (XTT cell proliferation kit; Biological Industries) or MTS-based (CellTiter 96® AQueous One Solution Cell Proliferation Assay; Promega) viability assays according to manufacturer instructions. Cells were also counted using the trypan-blue exclusion assay to verify the results obtained by XTT and MTS-based viability assays.\nWhen incubated with the highest amount of HBB (100 μg), the viability of the following cell lines was inhibited: the breast cancer cell lines T47D and MCF-7, the prostate cancer cell line 22RVi, the cervical cancer cell line Hela, and the melanoma cell lines RALL and RKTJ."}, "[2]": {"tested_on": "HPEC (Human pulmonary endothelial cells)", "test": "Viability of normal cells, HPEC", "format": "cell-based", "details": "normal lung-residing cell line, data not shown", "from_the_text": "(§2) The influence of HBB on the viability of the normal lung-residing cell lines HPEC (Human pulmonary endothelial cells) and HLMEC (Human lung microvascular endothelial cells) and on the normal kidney cell line 293T and 293A was examined as well."}, "[3]": {"tested_on": "normal kidney cell line 293T", "test": "Viability of normal cells, 293T", "format": "cell-based", "details": "data not shown", "from_the_text": "as §2"}, "[4]": {"tested_on": "MicroNB cells", "test": "Trypan blue exclusion assay, MicroNB cells", "format": "cell-based, human", "details": "incubation with HBB, results not shown", "procedure": "as §1\n(§3) The HBB-mediated inhibitory activity was dose dependent (results not shown)."}, "[5]": {"tested_on": "MacroNB cells", "test": "Trypan blue exclusion assay, MacroNB cells", "format": "cell-based, human", "details": "incubation with HBB, results not shown", "procedure": "as §1, §3"}, "[6]": {"tested_on": "ERK1/2 phosphorylation in MicroNB cells", "test": "ERK1/2 phosphorylation (western blot), MicroNB cells", "format": "cell-based, human", "details": "HBB (1 μg) for 48 hr; in reference to total ERK2; FIG. 4A", "procedure": "(§4) Lysates of neuroblastoma cells and of mouse organs were resolved on SDS-PAGE after the addition of Laemmli sample buffer, and transferred onto nitrocellulose membrane. The total amount of protein in the lanes was assessed by Ponceau staining prior to blocking of the membrane. The membrane was blocked at room temperature with 3% BSA (Sigma-Aldrich) diluted in TBS-Tween (TBST) for 1 hr. For detection of the target proteins, membranes were incubated with relevant primary antibodies (see “Antibodies”), then washed 3 times×5 min with TBSTX1 and incubated with suitable HRP-conjugated secondary antibodies (see “Antibodies”). Membranes were washed again 5 times×3 min with TBSTX1. The bands were visualized by chemiluminescence-ECL reactions and autoradiography by exposure to Fuji film. The amount of the relevant protein in the lanes was estimated by densitometry using Scion Image software (Scion, Frederick, Md., USA).\n(§5) Neuroblastoma cells (5×10^6) were plated and after 24 hr the growth medium was replaced with starvation medium (RPMI 0.5% FCS) for 24 hr. […] ERK1/2 phosphorylation was calculated in reference to total ERK2 protein, p38 and TAK1 phosphorylation was calculated in reference to total p38 and TAK1, respectively, as measured by densitometry using Scion Image software (Scion). […]"}, "[7]": {"tested_on": "ERK1/2 phosphorylation in MacroNB cells", "test": "ERK1/2 phosphorylation (western blot), MacroNB cells", "format": "cell-based, human", "details": "HBB (1 μg) for 48 hr; in reference to total ERK2; FIG. 4A", "procedure": "as §4, §5"}, "[8]": {"tested_on": "MicroNB cells", "test": "Cell cycle analysis by flow cytometry, MicroNB cells", "format": "cell-based, human", "details": "HBB (1 μg) for 48 hr", "procedure": "(§6) Neuroblastoma cells (5×10^5) were plated and after 24 hr, cells were incubated for 48 hr with HBB diluted in starvation medium (RPMI 5% BSA) to a concentration of 10 μg/ml. Neuroblastoma cells incubated with starvation medium containing BSA alone served as control. Cells were pelleted, washed and resuspended in 0.5 ml PBSX1, containing 0.05 ml propidium iodide (PI) (P-4170, Sigma) (50 μg/ml), and 0.05 ml Triton X-100 (Sigma-Aldrich). Flow cytometry analysis was performed using Becton Dickinson FACSort and CellQuest software (Becton Dickinson, Mountain View, Calif.).\n(§7) The cells were also subjected to measurement of cellular DNA content and cell cycle analysis using flow cytometry. Incubation with human HBB elevated the amount of MicroNB and MacroNB cells in the sub GO phase, by 18% and 11%, respectively (data not shown)."}, "[9]": {"tested_on": "MacroNB cells", "test": "Cell cycle analysis by flow cytometry, MacroNB cells", "format": "cell-based, human", "details": "HBB (1 μg) for 48 hr", "procedure": "as §6, §7"}, "[10]": {"tested_on": "Cyclin D1 expression in MicroNB cells", "test": "Cyclin D1 expression (western blot), MicroNB cells", "format": "cell-based", "details": "incubated with human HBB, 48 hr; in reference to beta-tubulin; FIG. 4C", "procedure": "Lysates of neuroblastoma cells and of mouse organs were resolved on SDS-PAGE after the addition of Laemmli sample buffer, and transferred onto nitrocellulose membrane. The total amount of protein in the lanes was assessed by Ponceau staining prior to blocking of the membrane. The membrane was blocked at room temperature with 3% BSA (Sigma-Aldrich) diluted in TBS-Tween (TBST) for 1 hr. For detection of the target proteins, membranes were incubated with relevant primary antibodies (see “Antibodies”), then washed 3 times×5 min with TBSTX1 and incubated with suitable HRP-conjugated secondary antibodies (see “Antibodies”). Membranes were washed again 5 times×3 min with TBSTX1. […]\nNeuroblastoma cells (5×10^6) were plated and after 24 hr cells were incubated for 48 hr with human HBB diluted in starvation medium (RPMI 5% BSA) to a concentration of 10 μg/ml. […] Cyclin D1 expression was calculated in reference to β-tubulin expression in the lane as measured by densitometry using Scion Image software (Scion).\nWhole cell lysates of MicroNB and MacroNB cells incubated with human HBB were subjected to western blot analysis and immunostaining. […] Cyclin D1 expression was calculated in reference to beta-tubulin. […] Significance was evaluated using Student's t-test for each analysis after incubation with HBB compared to incubation with control media."}}, "data": [{"substance": "HBB: beta subunit of human hemoglobin, 147 amino acids, SEQ ID NO:2, HPLC-purified from native human hemoglobin", "values": [{"measurement": "influence on viability of MCF-7 breast carcinoma cells (in words)", "setting": "[1]", "value": "inhibits the viability"}, {"measurement": "influence on the viability of normal cells", "setting": "[2]", "value": "did not influence the viability"}, {"measurement": "influence on the viability of normal cells", "setting": "[3]", "value": "did not influence the viability"}, {"measurement": "non-viable MicroNB cells following incubation", "setting": "[4]", "value": 16, "unit": "%"}, {"measurement": "non-viable MacroNB cells following incubation", "setting": "[5]", "value": 8, "unit": "%"}, {"measurement": "ERK phosphorylation in MicroNB cells", "setting": "[6]", "value": "decreased"}, {"measurement": "ERK phosphorylation in MacroNB cells", "setting": "[7]", "value": "decreased"}, {"measurement": "elevation of the amount of MicroNB cells in G0-G1 phase", "setting": "[8]; FIG. 4B", "value": 59, "unit": "%"}, {"measurement": "elevation of the amount of MicroNB cells in the sub G0 phase", "setting": "[8]; data not shown", "value": 18, "unit": "%"}, {"measurement": "elevation of the amount of MacroNB cells in G0-G1 phase", "setting": "[9]; FIG. 4B", "value": 23, "unit": "%"}, {"measurement": "elevation of the amount of MacroNB cells in the sub G0 phase", "setting": "[9]; data not shown", "value": 11, "unit": "%"}, {"measurement": "Cyclin-D1 expression in MicroNB cells", "setting": "[10]", "value": "significant decline"}]}]}
